How the values were obtained:
[1] = not given; remark: listed apart in the source
[2] = not given; remark: listed apart in the source
[3] = not given; remark: listed apart in the source
[4] = organism: Homo sapiens
[5] = physchem

Row | Compound | log Pe [2] | log Kp ([4]; in vivo) | log Pe [3] | pKa [5] | also measured
1 | O=C(O)c1ccccc1O [SALICYLIC ACID] | – | – | – | – | log Pe (not told): -4.74 cm/s; log Kp ([1]; not told): -4.7 cm/s; log Pe ([2]; not told): -3.98 cm/s; log Pe ([3]; not told): -4.16 cm/s
2 | Cc1cc(=O)n(-c2ccccc2)n1C [ANTIPYRINE] | -5.4 cm/s | -7.74 cm/s | -6.2 cm/s | – | –
3 | CCc1ccc(O)cc1 | – | -5.01 cm/s | -4.05 cm/s | 10.2 | –
4 | CCNc1nc(Cl)nc(NC(C)C)n1 [ATRAZINE] | – | -5.56 cm/s | -4.21 cm/s | < 2 | –
5 | O=[N+]([O-])c1ccc(O)cc1 [P-NITROPHENOL] | -4.09 cm/s | -5.81 cm/s | -4.33 cm/s | 6.9 | log Pe: -5.24 cm/s; log Kp [1]: -5.08 cm/s
6 | COc1ccc2c(c1)c(CC(=O)O)c(C)n2C(=O)c1ccc(Cl)cc1 [INDOMETHACIN] | – | – | -4.2 cm/s | – | log Kp [4]: -5.39 cm/s
7 | CN[C@@H](C)[C@H](O)c1ccccc1 [EPHEDRINE] | – | -5.75 cm/s | -4.82 cm/s | – | –
8 | CC(C(=O)O)c1cccc(C(=O)c2ccccc2)c1 (stereo unspecified) [KETOPROFEN] | – | -4.7 cm/s | – | – | –
9 | CN1C(C(=O)Nc2ccccn2)=C(O)c2ccccc2S1(=O)=O [PIROXICAM] | – | -6.02 cm/s | -4.35 cm/s | – | –
10 | COC(=O)c1cccnc1 [METHYL NICOTINATE] | – | -6.04 cm/s | -4.32 cm/s | 3.84 | –
11 | CC(=O)[C@H]1CC[C@H]2[C@@H]3CCC4=CC(=O)CC[C@]4(C)[C@H]3CC[C@]12C [PROGESTERONE] | – | -5.08 cm/s | – | – | log Pe (not told): -4.31 cm/s; log Pe ([2]; not told): -4.63 cm/s; log Pe ([3]; not told): -4.56 cm/s
12 | Oc1ccccc1 [PHENOL] | – | – | – | – | log Pe (not told): -4.53 cm/s; log Kp ([1]; not told): -4.45 cm/s; log Pe ([2]; not told): -4 cm/s; log Kp [4]: -5.54 cm/s; log Pe ([3]; not told): -4.14 cm/s
13 | Cc1ccc(C(C)C)c(O)c1 [THYMOL] | -4.23 cm/s | -4.83 cm/s | -4.34 cm/s | 10.6 | log Pe: -4.11 cm/s; log Kp [1]: -3.68 cm/s
14 | Oc1ccc2ccccc2c1 [BETANAPHTHOL] | – | – | – | 9.4 | log Pe (not told): -4.35 cm/s; log Kp ([1]; not told): -4.08 cm/s; log Pe ([2]; not told): -4.41 cm/s; log Kp [4]: -5.11 cm/s; log Pe ([3]; not told): -4.19 cm/s
15 | c1ccc2cnccc2c1 [ISOQUINOLINE] | – | -5.33 cm/s | -4.05 cm/s | 5.37 | –
16 | CCC1(c2ccccc2)C(=O)NC(=O)NC1=O [PHENOBARBITAL] | -4.16 cm/s | – | -5.15 cm/s | 7.49 | log Kp [4]: -6.9 cm/s
17 | CN1CCC[C@H]1c1cccnc1 [NICOTINE] | – | – | – | 8.08 | log Pe (not told): -4.86 cm/s; log Kp ([1]; not told): -4.29 cm/s; log Pe ([2]; not told): -4.23 cm/s; log Kp [4]: -5.26 cm/s; log Pe ([3]; not told): -4.58 cm/s
18 | Oc1cccc(O)c1 [RESORCINOL] | -4.66 cm/s | – | -5.62 cm/s | 9.21 | –
19 | O=C(O)Cc1ccccc1Nc1c(Cl)cccc1Cl [DICLOFENAC] | – | -5.3 cm/s | -4.33 cm/s | – | –
20 | Cn1c(=O)c2c(ncn2C)n(C)c1=O [CAFFEINE] | – | – | – | – | log Kp [4]: -7.56 cm/s
21 | O=C(OCc1ccccc1)c1cccnc1 [BENZYL NICOTINATE] | -4.35 cm/s | -5.35 cm/s | -4.26 cm/s | 3.94 | log Pe: -4.18 cm/s
22 | Oc1ccc(Cl)cc1 [PARACHLOROPHENOL] | – | -5 cm/s | -4.1 cm/s | 9.26 | –
23 | Nc1cc([N+](=O)[O-])ccc1O [2-AMINO-4-NITROPHENOL] | -3.96 cm/s | -6.62 cm/s | -4.84 cm/s | 6.7 | –

Reference: ChEMBL document CHEMBL1138041, “Parallel artificial membrane permeability assay: a new membrane for the fast prediction of passive human skin permeability” (J Med Chem, 2006)
